Inconclusive results are not listed. Activity calls are given as the source filed them.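 How the source made its calls: active means Compounds that reduce signal, with fitted half-maximal dose at or under twice the top valid tested dose; inconclusive means Poor fit, or flat curve losing 30 to 70% of signal; inactive means Potency past limit, flat within 30%, or opposite direction.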
Test: HEK293T cell cytotoxicity, dose response, cytotoxicity control, ATP luminescence, cherry-pick samples (AID 687005)
Conditions: HEK293T viability, ATP luminescence (CellTiter-Glo), 48 h; at 23.5 µM (top of the series)

Row | SMILES | activity change, negative = cytotoxicity
1 | CC(C)NC(=O)Nc1ccc2c(c1)CC(=O)N([C@H](C)CO)C[C@H](C)[C@H](CN(C)S(=O)(=O)c1ccc(Cl)cc1)O2 | 39.4% (inactive)
2 | CNC(=O)C[C@@H]1CC[C@@H]2[C@H](COc3ccc(NC(=O)c4cc(C)on4)cc3C(=O)N2C)O1 | 26.8% (inactive)
3 | Cc1noc(C)c1NC(=O)Nc1ccc2c(c1)C(=O)N(C)[C@H]1CC[C@H](CC(=O)N[C@H]3CCN(Cc4ccccc4)C3)O[C@H]1CO2 | -3.29% (inactive)
4 | C[C@@H]1CCCCO[C@@H](CN(C)Cc2ccncc2)[C@@H](C)CN([C@@H](C)CO)C(=O)c2cc(NC(=O)c3ccncc3)ccc2O1 | 46.4% (inactive)
5 | CCCNC(=O)[C@@H]1[C@@H](CO)[C@@H]2Cn3c(cccc3=O)[C@H]1N2C(=O)Nc1cc(F)ccc1F | 27.4% (inactive)
6 | C[C@@H]1CN([C@@H](C)CO)C(=O)CCCn2cc(nn2)CO[C@@H]1CN(C)Cc1ccc2c(c1)OCO2 | -1.87% (inactive)
7 | CO[C@@H]1CN(C)C(=O)c2cc(NC(=O)C3CCOCC3)ccc2OC[C@H](C)NC[C@@H]1C | -2.94% (inactive)

Same assay, conditions: HEK293T viability, ATP luminescence (CellTiter-Glo), 48 h; at 26 µM (top of the series)

Row | SMILES | activity change, negative = cytotoxicity
8 | C[C@H](O)C#Cc1ccc2c(c1)O[C@H](CN(C)Cc1ccncc1)[C@H](C)CN([C@H](C)CO)S2(=O)=O | 29.2% (inactive)
9 | C[C@@H]1CCCCO[C@@H](CN(C)S(=O)(=O)c2cccs2)[C@H](C)CN([C@@H](C)CO)C(=O)c2cc(NC(=O)CCC(F)(F)F)ccc2O1 | -7.43% (inactive)
10 | Cc1cc(C)cc(OCC(=O)NC(C)c2ccccc2)c1 (stereo not given) | 14.9% (inactive)
11 | CCCNC(=O)C[C@@H]1CC[C@@H]2[C@H](COc3ccc(NC(=O)CCC)cc3C(=O)N2C)O1 | 52.7% (inactive)
12 | CC(C)NC(=O)N(C)C[C@@H]1Oc2c(NC(=O)C3CCCCC3)cccc2C(=O)N([C@@H](C)CO)C[C@@H]1C | 24.4% (inactive)
13 | O=C(C[C@H]1CC[C@H]2[C@@H](COC[C@H](O)CN2C(=O)Nc2ccc3c(c2)OCO3)O1)N1CCN(c2ccccc2)CC1 | 5.63% (inactive)
14 | CNC(=O)C[C@H]1CC[C@H]2[C@@H](COc3ccc(NC(=O)Nc4ccccc4)cc3C(=O)N2C)O1 | 7.97% (inactive)
15 | COc1ccc(NC(=O)CSc2ncnc3c2cnn3CCc2ccccc2)cc1 | -33.3% (inactive)
16 | CCCNC(=O)N1[C@@H](CO)[C@@H](c2ccc(-c3ccccc3)cc2)[C@@H]1CNC(C)=O | -1.66% (inactive)
17 | CNC[C@@H]1OCCCC[C@@H](C)Oc2ccc(NS(=O)(=O)c3ccc(Cl)cc3)cc2C(=O)N([C@H](C)CO)C[C@H]1C | -31.3% (inactive)
18 | COc1ccc(-c2cnc3c(c2)C(=O)N([C@@H](C)CO)C[C@H](C)[C@@H](CN(C)S(C)(=O)=O)O3)cc1 | -11.2% (inactive)
19 | Cc1ccccc1OCC(=O)NC(C)c1ccccc1 (stereo not given) | -29.9% (inactive)
20 | COc1ccc(NC(=O)N(C)C[C@H]2OCCCC[C@H](C)Oc3ccc(NC(=O)C4CCCCC4)cc3C(=O)N([C@@H](C)CO)C[C@@H]2C)cc1 | -27.2% (inactive)
21 | O=C(O)C[C@@H]1CC[C@@H]2[C@H](COC[C@H](O)CN2S(=O)(=O)c2ccc(F)cc2)O1 | -25.9% (inactive)
22 | CC(C)CC#Cc1cnc2c(c1)C(=O)N([C@@H](C)CO)C[C@@H](C)[C@@H](CN(C)C(=O)c1cccc(F)c1)O2 | -19.3% (inactive)
23 | O=C(C[C@@H]1C=C[C@@H](NC(=O)c2cccc(F)c2)[C@H](CO)O1)NCCN1CCCC1 | 20.8% (inactive)
24 | O=S1(=O)CCC(N=Cc2cc(Br)ccc2O)C1 (stereo not given) | 37.7% (inactive)
25 | CNC[C@@H]1Oc2ccc(NS(=O)(=O)c3ccc(Cl)cc3)cc2C(=O)N([C@H](C)CO)C[C@H]1C | 45.6% (inactive)
26 | C[C@H](CO)N1C[C@H](C)[C@H](CN(C)C(=O)Nc2ccc3c(c2)OCO3)Oc2ncc(-c3ccc(F)cc3)cc2C1=O | -18.8% (inactive)

Row | SMILES | activity change, negative = cytotoxicity
27 | CCC(=O)N1[C@H](CN(C)C(C)=O)[C@@H](c2ccc(C3=CCCCC3)cc2)[C@@H]1CO | -18.9% (inactive)
28 | Cc1cccc(C)c1NC(=O)C(CCc1ccccc1)N1CCC(c2ccccc2)CC1 (stereo not given) | -63.1% (inactive)
29 | Cc1ccccc1-n1ncc2c(SCC(=O)NCc3cccs3)ncnc21 | -48.1% (inactive)
30 | CCS(=O)(=O)N1CCCCN2[C@H](CO)[C@@H](c3ccc(-c4ccc(C#N)cc4)cc3)[C@@H]2C1 | 2.55% (inactive)
31 | COC(=O)N(C)C[C@H]1OCc2cn(nn2)CCCC(=O)N([C@H](C)CO)C[C@@H]1C | -11% (inactive)
32 | CC(C)COc1ccc(CNC(=S)NCc2ccccc2)cc1 | -1.46% (inactive)
33 | C[C@H](NC(=O)C[C@@H]1C=C[C@H](NC(=O)CN2CCOCC2)[C@H](CO)O1)c1ccccc1 | -20.9% (inactive)
34 | CC(C)NC(=O)Nc1ccc2c(c1)C(=O)N([C@@H](C)CO)C[C@@H](C)[C@@H](CN(C)C(=O)NC(C)C)OCCCC[C@@H](C)O2 | 20.5% (inactive)
35 | CO[C@@H]1CN(C)C(=O)c2cc(NS(=O)(=O)C3CCCCC3)ccc2OC[C@H](C)NC[C@@H]1C | 0.127% (inactive)
36 | C[C@H](CO)N1C[C@H](C)[C@H](CN(C)C(=O)c2ccccn2)Oc2ncc(-c3ccccc3)cc2C1=O | -0.807% (inactive)
37 | O=C(N[C@H]1CC[C@@H](CCn2cc(-c3ccccc3)nn2)O[C@@H]1CO)c1cnccn1 | 40.7% (inactive)
38 | COc1ccc(C#Cc2cnc3c(c2)C(=O)N([C@@H](C)CO)C[C@H](C)[C@@H](CN(C)C(=O)CC2CC2)O3)cc1 | -34.7% (inactive)
39 | COCC(=O)NC[C@H]1N[C@H](CO)[C@H]1c1ccc(C2=CCCC2)cc1 | -13.3% (inactive)
40 | CCOC(=O)CSc1ncnc2c1cnn2-c1ccc(Cl)cc1 | 0.015% (inactive)
41 | O=C(NCc1ccc(F)cc1)C1C2C=CC3(CN(Cc4cccnc4)C(=O)C13)O2 (stereo not given) | 9.79% (inactive)
42 | C[C@@H]1CN([C@@H](C)CO)C(=O)c2cc(NC(=O)Nc3ccccc3)ccc2O[C@@H]1CN(C)C(=O)Nc1cccc2ccccc12 | 203% (inactive)
43 | CNC[C@H]1Oc2cc(Br)ccc2S(=O)(=O)N([C@H](C)CO)C[C@H]1C | 37.7% (inactive)
44 | C[C@H]1CN([C@@H](C)CO)C(=O)c2cc(C#Cc3ccccn3)cnc2O[C@H]1CN(C)Cc1ccncc1 | 38.4% (inactive)
45 | O=C(CSc1ncnc2c1cnn2-c1ccccc1)Nc1ccc2c(c1)OCO2 | 2.1% (inactive)

Row | SMILES | activity change, negative = cytotoxicity
46 | CNC[C@@H]1OCCCC[C@H](C)Oc2ccc(NC(=O)NC(C)C)cc2C(=O)N([C@H](C)CO)C[C@H]1C | 14.1% (inactive)
47 | C[C@@H]1CN([C@@H](C)CO)C(=O)c2cccc(NC(=O)Nc3ccccc3)c2O[C@H]1CN(C)S(=O)(=O)c1cn(C)cn1 | 55.5% (inactive)
48 | Cc1ccc(NC(=O)[C@H](C)NC(=O)C2CCN(C(=O)[C@@H](N)C(C)C)CC2)cc1 | -1.97% (inactive)
49 | COCC#Cc1cnc2c(c1)C(=O)N([C@@H](C)CO)C[C@H](C)[C@H](CN(C)C(=O)Nc1ccc(OC)cc1)O2 | 21.8% (inactive)
50 | CCC(C)(C(=O)Nc1ccccc1C)N(C(=O)CNC(C)=O)c1ccc(C)cc1 (stereo not given) | -11.7% (inactive)
51 | CCCN(C)C[C@@H]1OCCCC[C@H](C)Oc2ccc(NS(=O)(=O)c3ccc(C)cc3)cc2C(=O)N([C@H](C)CO)C[C@@H]1C | 37.3% (inactive)
52 | CCCNC(=O)N1C[C@H](O)COC[C@H]2O[C@H](CC(=O)N3CCN(C)CC3)CC[C@@H]21 | -14.1% (inactive)
53 | CN1C(=O)c2cc(NS(C)(=O)=O)ccc2OC[C@@H]2O[C@@H](CC(=O)O)CC[C@H]21 | 4.2% (inactive)
54 | C[C@H](CO)N1C[C@H](C)[C@@H](CN(C)Cc2ccc(Oc3ccccc3)cc2)Oc2ccc(NS(=O)(=O)c3cn(C)cn3)cc2CC1=O | -30.9% (inactive)
55 | CCC(=O)N(C)C[C@H]1Oc2cc(C#CC(C)(C)O)ccc2S(=O)(=O)N([C@@H](C)CO)C[C@@H]1C | 8.91% (inactive)
56 | CC(C)NC(=O)N(C)C[C@H]1OCCCC[C@@H](C)Oc2ccc(NC(=O)c3ccccc3)cc2C(=O)N([C@@H](C)CO)C[C@@H]1C | -10.9% (inactive)
57 | CCCN1C[C@H](C)[C@@H](OC)CN(C)C(=O)c2cc(NC(=O)c3cccc(F)c3)ccc2OC[C@H]1C | 10.2% (inactive)
58 | COc1ccc(NC(=O)N(C)C[C@H]2OCCCC[C@@H](C)Oc3ccc(NC(=O)c4ccccc4)cc3C(=O)N([C@@H](C)CO)C[C@H]2C)cc1 | 7.8% (inactive)
59 | COCCNC(=O)C[C@@H]1C[C@H]2c3cc(NC(=O)C4CCC4)ccc3O[C@H]2[C@@H](CO)O1 | 3.65% (inactive)
60 | CC(C)NC(=O)NCC[C@@H]1CC[C@@H](NC(=O)CN(C)C)[C@@H](CO)O1 | 44.1% (inactive)
61 | CCNC(=O)Nc1ccc2c(c1)C(=O)N(C)[C@H]1CC[C@H](CC(=O)N[C@@H](C)c3ccccc3)O[C@H]1CO2 | 75.7% (inactive)
62 | O=C(C[C@H]1CC[C@H]2[C@@H](COC[C@@H](O)CN2C(=O)c2ccc(F)cc2)O1)N1CCOCC1 | -14.1% (inactive)
63 | O=C(CCN1CCCCC1)NCC[C@@H]1CC[C@H](NC(=O)c2ccc(F)cc2)[C@@H](CO)O1 | 9.77% (inactive)

Same assay, conditions: HEK293T viability, ATP luminescence (CellTiter-Glo), 48 h; at 28.5 µM (top of the series)

Row | SMILES | activity change, negative = cytotoxicity
64 | COC(=O)C1=C(C)N(Cc2ccc(F)cc2)C(=S)NC1c1ccccc1 (stereo not given) | 17.5% (inactive)

Same assay, conditions: HEK293T viability, ATP luminescence (CellTiter-Glo), 48 h; at 38 µM (top of the series)

Row | SMILES | activity change, negative = cytotoxicity
65 | CC(C)C(=O)N1CCC1(C)C(=O)Nc1ccccc1C(C)(C)C (stereo not given) | -4.57% (inactive)

Reference: PubChem BioAssay AID687005 (Broad Institute, 2013)
